Laboratory results as given in US20030215462A1, “Use of UGT inhibitors to increase bioavailability” (priority 2001, published 2003).
Values joined by “and” are separate entries in the source; they are usually repeats but may differ in a detail not shown here. Identical values can stand only once.

Experiments:
[1] = tested on: UGT enzymes of human liver microsomes; assay: Inhibition of raloxifene glucuronidation (G1, G2) in human liver microsomes; type: biochemical; details: for % of control metabolism (SD, n = 3), raloxifene glucuronide G2: human liver microsomes 250 μg/ml, 15 min
Excerpt: Compounds were eluted using a binary solvent gradient system. […] Solvent B was methanol. […] Detection was at 280 nm.

UGT1A3 = biological target: T1, UGT1A3 (Homo sapiens, UniProt P35503); assay: Inhibition of raloxifene glucuronidation by recombinant UGT1A3 Supersomes; details: human; for activity at 15 min, 10 µM: inhibitor 10 μM; for activity at 15 min, 25 µM: inhibitor 25 μM; for activity at 15 min, 50 µM: inhibitor 50 μM
T1 sequence (P35503 29-534): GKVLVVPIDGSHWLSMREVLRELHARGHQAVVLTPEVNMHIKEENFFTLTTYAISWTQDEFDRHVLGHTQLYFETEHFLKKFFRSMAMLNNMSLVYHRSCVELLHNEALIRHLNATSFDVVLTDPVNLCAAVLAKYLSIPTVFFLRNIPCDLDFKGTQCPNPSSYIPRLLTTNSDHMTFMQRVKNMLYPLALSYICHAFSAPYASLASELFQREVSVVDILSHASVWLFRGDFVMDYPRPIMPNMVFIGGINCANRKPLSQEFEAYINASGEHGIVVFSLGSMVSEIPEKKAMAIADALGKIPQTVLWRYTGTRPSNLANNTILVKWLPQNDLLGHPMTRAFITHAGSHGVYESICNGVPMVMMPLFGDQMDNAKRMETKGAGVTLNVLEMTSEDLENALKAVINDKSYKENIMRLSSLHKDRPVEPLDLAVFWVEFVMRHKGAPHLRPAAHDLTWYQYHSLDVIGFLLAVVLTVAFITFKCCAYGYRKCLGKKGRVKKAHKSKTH
Protocol: Compounds were eluted using a binary solvent gradient system. Solvent A was water brought to pH 8 with NH4OH. Solvent B was methanol. Solvent flow rate was 1 ml/min and the column temperature was maintained at 50° C. Detection was at 280 nm. […] The system was then returned to the initial conditions and equilibrated for 3 min.

[2] = biological target: T2, UGT enzymes of human liver microsomes (Homo sapiens, UniProt P16662); assay: Inhibition of zidovudine glucuronidation in human liver microsomes; type: biochemical; details: liver lot 062101
T2 construct: residual metabolism (percentage of control), zidovudine glucuronidation; other: liver lot 062101; residual metabolism (percentage of control), zidovudine glucuronidation; residual metabolism (percentage of control)
T2 sequence (P16662 1-529): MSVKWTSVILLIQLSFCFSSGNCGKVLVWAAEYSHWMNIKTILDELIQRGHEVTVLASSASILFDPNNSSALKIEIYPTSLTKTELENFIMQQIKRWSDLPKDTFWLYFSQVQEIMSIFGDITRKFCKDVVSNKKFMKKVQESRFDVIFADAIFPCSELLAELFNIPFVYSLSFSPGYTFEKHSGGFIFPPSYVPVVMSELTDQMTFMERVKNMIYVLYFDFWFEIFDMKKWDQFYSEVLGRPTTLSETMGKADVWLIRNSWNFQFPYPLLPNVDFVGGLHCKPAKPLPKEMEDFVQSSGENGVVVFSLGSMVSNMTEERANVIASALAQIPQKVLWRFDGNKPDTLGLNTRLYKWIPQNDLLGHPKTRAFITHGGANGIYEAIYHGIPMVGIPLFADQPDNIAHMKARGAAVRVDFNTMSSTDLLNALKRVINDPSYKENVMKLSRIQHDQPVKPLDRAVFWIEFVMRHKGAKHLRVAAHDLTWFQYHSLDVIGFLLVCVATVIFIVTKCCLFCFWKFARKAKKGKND
Protocol: Compounds were eluted using a binary solvent gradient system where solvent A was dilute phosphoric acid (pH 3) and solvent B was acetonitrile.
Standardized incubations utilized 500 μM zidovudine substrate, 1 mg/ml microsomal protein, 5 mM UDPGA and a 30 min incubation time. […] Int.

[3] = liver lot 032101, inhibitor 10 μM
[4] = liver lot 062101, inhibitor 10 μM
[5] = liver lot 083000, inhibitor 10 μM
[6] = raloxifene 50 μM, inhibitor 10 μM
[7] = raloxifene 50 μM, inhibitor 25 μM
[8] = raloxifene 50 μM, inhibitor 50 μM
[9] = raloxifene 50 μM, inhibitor 100 μM
[10] = Supersomes with recombinant human UGT1A3, pH 7.5, probe raloxifene 50 μM, formation of glucuronide G1, % of control metabolism, raloxifene G1, UGT1A3
[11] = Supersomes with recombinant human UGT1A3, pH 7.5, probe raloxifene 50 μM, formation of glucuronide G2, % of control metabolism, raloxifene G2, UGT1A3
[12] = recombinant UGT1A3 Supersomes, pH 7.5, probe raloxifene 50 μM (formation of glucuronide G1), Inhibition of raloxifene glucuronidation, G1, UGT1A3, G1, raloxifene 50 μM, 250 μg/ml Supersomes, 1 mM UDPGA, 15 min
[13] = recombinant UGT1A3 Supersomes, pH 7.5, probe raloxifene 50 μM (formation of glucuronide G2), Inhibition of raloxifene glucuronidation, G2, UGT1A3, G2, raloxifene 50 μM, 250 μg/ml Supersomes, 1 mM UDPGA, 15 min

CC/C(=C(/CC)c1ccc(O)cc1)c1ccc(O)cc1 [Diethylstilbestrol, reference compound]
% of control metabolism (SD, n = 3), raloxifene glucuronide G2 ([1]; inhibitor 2 μM, raloxifene 50 μM): 107 (5) % | % of control metabolism (SD, n = 3), raloxifene glucuronide G2 ([1]; inhibitor 5 μM, raloxifene 50 μM): 109 (1) % | % of control metabolism (SD, n = 3), raloxifene glucuronide G2 ([1]; inhibitor 10 μM, raloxifene 50 μM): 111 (7) % | % of control metabolism (SD, n = 3), raloxifene glucuronide G2 ([1]; inhibitor 25 μM, raloxifene 50 μM): 100 (5) % | % of control metabolism (SD, n = 3), raloxifene glucuronide G2 ([1]; inhibitor 50 μM, raloxifene 50 μM): 58 (2) % | % of control metabolism (SD, n = 3), raloxifene glucuronide G2 ([1]; inhibitor 100 μM, raloxifene 50 μM): 43 (0) % | % of control metabolism (SD, n = 3), raloxifene glucuronide G2 ([1]; inhibitor 500 μM, raloxifene 50 μM): 0 (0) % | % of control metabolism, raloxifene G1 [1, 3]: 70 (2) % | % of control metabolism, raloxifene G2 [1, 3]: 96 (1) % | % of control metabolism, raloxifene G1 [1, 4]: 89 (2) % | % of control metabolism, raloxifene G2 [1, 4]: 83 (2) % | % of control metabolism, raloxifene G1 [1, 5]: 58 (3) % | % of control metabolism, raloxifene G2 [1, 5]: 111 (7) % | % of control metabolism, raloxifene G1 [1, 6]: 58 (3) % | % of control metabolism, raloxifene G2 [1, 6]: 111 (7) % | % of control metabolism, raloxifene G1 [1, 7]: 36 (1) % | % of control metabolism, raloxifene G2 [1, 7]: 100 (5) % | % of control metabolism, raloxifene G1 [1, 8]: 14 (1) % | % of control metabolism, raloxifene G2 [1, 8]: 58 (2) % | % of control metabolism, raloxifene G1 [1, 9]: 8 (0) % | % of control metabolism, raloxifene G2 [1, 9]: 43 (0) % | activity at 15 min, 10 µM (UGT1A3; [10]): 65% | activity at 15 min, 25 µM (UGT1A3; [10]): 32% | activity at 15 min, 50 µM (UGT1A3; [10]): 14% | activity at 15 min, 10 µM (UGT1A3; [11]): 74% | activity at 15 min, 25 µM (UGT1A3; [11]): 48% | activity at 15 min, 50 µM (UGT1A3; [11]): 21% | activity at 15 min, 10 µM (UGT1A3; [12]): 65% | activity at 15 min, 25 µM (UGT1A3; [12]): 32% | activity at 15 min, 50 µM (UGT1A3; [12]): 14% | activity at 15 min, 10 µM (UGT1A3; [13]): 74% | activity at 15 min, 25 µM (UGT1A3; [13]): 48% | activity at 15 min, 50 µM (UGT1A3; [13]): 21% | residual metabolism (percentage of control), zidovudine glucuronidation ([2]; inhibitor 50 μM): 50 (4) % and 44 (2) % | residual metabolism (percentage of control), zidovudine glucuronidation ([2]; inhibitor 100 μM): 34 (4) % | residual metabolism (percentage of control), zidovudine glucuronidation ([2]; inhibitor 200 μM): 15 (1) % | residual metabolism (percentage of control), zidovudine glucuronidation ([2]; inhibitor 500 μM): 0 (0) %
